Converted amounts (≈) assume the structure as drawn. Like-named read-outs stand apart in the source and are kept apart here. *1 amine or outer side, *2 acyl side, *3 side chain or, on linkers, in order; H or OH if unused. Where a SMILES comes first, the peptide text is derived from it. Bridges are numbered along the chain shown (N, C = ends). Roman numbers before positions name the chains, in order. [ ]: non-standard residue; d: D form. The star is where a group is joined. X6 = C#CCOCCOCCOCCOCCCN1C[C@@H](C(=O)[*:1])[C@H](C(=O)[*:2])C1; Propargyl(OCH2CH2)4CO = C#CCOCCOCCOCCOCCC(=O)*; Aoc(2) = CCCCCC[C@H](N)C(=O)O; Nle = CCCC[C@H](N)C(=O)O; Dab = NCC[C@H](N)C(=O)O; azaGly = NNC(=O)O
How the values were obtained:
Ec 25922 = format: cell-based, Escherichia coli
How it was run: (§1)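 Twofold dilution series of each agent received bacterial cells from MHA plates (saline, ~0.1 OD600 nm), with RPMI B medium used for drug conjugates. Plates were shaken and held at 35° C overnight (16-20 h). LES431 was tested in presence and absence of 50% heat-inactivated fetal bovine serum.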

Ec 2469 = format: cell-based, Escherichia coli
How it was run: as §1

E. coli 25922 = conditions: 0.3 mg/kg IP qd at T+1 hour; 72 hours after bacterial challenge; N=3
Experimental: In vivo screening of selected compounds was accomplished in an E. coli bacteremia model (N=3). Efficacy was assessed in an animal model of infection using CD-1 mice by evaluating bacteremia in immune competent mice challenged with 2× the LD95 of E. coli 25922 (dosed qd, intraperitoneally (IP) at T+1 hour, survival endpoint).
Colistin (COL) and Int-17 were dosed at 0.3 mg/kg and Int-41 was dosed at 3.0 mg/kg. Percent survival was determined 72 hours after bacterial challenge. Compounds with MICs against E. coli 25922 of less than 4 μg/ml were evaluated in the bacteremia model.
Int-115 and Int-118 were evaluated for potency in a lethal model of bacteremia. […] Test articles were dissolved in 1× PBS and injected IV at a dose volume of 10 ml/kg one hour following bacterial challenge. Animals were monitored twice daily and mortality scored over three days.
CD-1 mice were used for bacteremia, C57BL/6J mice for endotoxemia. The endpoint was survival after three days for both models.

Ab AB5075 = format: cell-based, Acinetobacter baumannii
How it was run: as §1

Kp 10031 = format: cell-based, Klebsiella pneumoniae
How it was run: as §1

Kp 6951 (COL^R) = format: cell-based, Klebsiella pneumoniae
How it was run: as §1

Kp 43816 = format: cell-based, Klebsiella pneumoniae
How it was run: as §1

Pa PAO1 = format: cell-based, Pseudomonas aeruginosa
How it was run: as §1

Pa 27853 = format: cell-based, Pseudomonas aeruginosa
How it was run: as §1

Pa LES431 = format: cell-based, Pseudomonas aeruginosa
How it was run: as §1

Ab 19606 (COLhet^R) = format: cell-based, Acinetobacter baumannii; conditions: media CA-MHB
Ec AR0349 (mcr-1, COL^R) = format: cell-based, Escherichia coli; conditions: media CA-MHB
Ec 25922 64X-1 (COL^R) = format: cell-based, Escherichia coli; conditions: media CA-MHB
[1] = tested on: Ab AB58705 (COL^R) IpxD, mut. (no LPS); format: cell-based, Acinetobacter baumannii; conditions: media CA-MHB
[2] = tested on: Ec COL^R LPS: colistin-resistant (MCR-1) strain (AR0349); assay: Lethal mouse endotoxemia model (LD95 purified LPS IP); format: in vivo, C57BL/6J mice; conditions: (D) Endotoxemia (Ec COL^R LPS); 5 mg/kg IV, single, -1 hr; survival after three days
Experimental: Studies (B)-(D) shown in Table 22 summarizes the efficacy of compounds in lethal models of endotoxemia. In these models 6 week old C57I/6J immune competent mice (Jackson Laboratory) were challenged IP with purified lipopolysaccharide (LPS) in PBS at an LD95. For all studies, LPS was obtained from Sigma (catalog numbers in the table footnote) or were purified using a kit obtained from iNtRON Biotechnology Inc. (cat #17141). One hour prior to LPS challenge mice were dosed with test articles as indicated (Table 22). The results of these studies indicate that compounds are able to neutralize the lethal effects of LPS in a severe endotoxemia/sepsis model.
End point was survival after 3 days. Ec: E. coli 0111:B34, Sigma cat #L4130; Ab: Acinetobacter baumannii 5075; Kp: Klebsiella pneumonia 10, Sigma cat #L4268; Ng: Neisseria gonorrhoeae 19424; Ec 026:B86, Sigma cat #L2762; Pm: Proteus mirabilis, Sigma cat #SMB00704; Sm: Serratia marcescens, Sigma cat #L6016; Pa: Pseudomonas aeruginosa 10. […] Purified LPS used for all endotoxemia studies and if not denoted by a Sigma catalog number the LPS was purified in-house using an iNtRON #17141 purification kit. *Delayed death, at the time Fc only animals reached 100% mortality all Conjugate 41 mice were still alive.

Ab 8990 (COL^R) = format: cell-based, Acinetobacter baumannii; conditions: Ab 8990 (COL^R); media CA-MHB
How it was run: as §1

Sa RN = format: cell-based

C#CCOCCOCCOCCOCCC(=O)N[C@@H](CCCCCC)C(=O)N[C@@H](CCN)C(=O)N[C@H](C(=O)N[C@@H](CCN)C(=O)N[C@H]1CCNC(=O)[C@H]([C@@H](C)O)NC(=O)[C@H](CCN)NC(=O)[C@H](CCN)NC(=O)[C@H](CC(C)C)NC(=O)[C@@H](Cc2ccccc2)NC(=O)[C@H](CCN)NC1=O)[C@@H](C)O [Int-17] ({Propargyl(OCH2CH2)4CO}-[Aoc(2)][Dab]T[Dab][Dab][Dab][dF]L[Dab][Dab]T; lactam 5-C)
MIC (Ec 25922): 2 µg/mL (≈ 1.38 µM)
MIC E. coli ATCC 25922, No serum (Ec 25922): 2 µg/mL (≈ 1.38 µM)
MIC E. coli ATCC 25922, Serum (Ec 25922): 0.5 µg/mL (≈ 0.346 µM)
MIC (Ec 2469): 1 µg/mL (≈ 0.691 µM)
% Survival (IP, QD) (E. coli 25922): 100%
MIC (Ab AB5075): 1 µg/mL (≈ 0.691 µM)
MIC (Kp 10031): 1 µg/mL (≈ 0.691 µM)
MIC (Kp 6951 (COL^R)): >128 µg/mL
MIC (Kp 43816): 1 µg/mL (≈ 0.691 µM)
MIC (Pa PAO1; PAO1): 4 µg/mL (≈ 2.76 µM)
MIC (Pa 27853): 2 µg/mL (≈ 1.38 µM)
MIC (Pa LES431): 1 µg/mL (≈ 0.691 µM)
MIC (Ab 19606 (COLhet^R)): 1 µg/mL (≈ 0.691 µM)
MIC (Ec AR0349 (mcr-1, COL^R)): 16 µg/mL (≈ 11.1 µM)
MIC (Ec 25922 64X-1 (COL^R)): 64 µg/mL (≈ 44.2 µM)

C#CCOCCOCCOCCOCCCN1C[C@@H](C(=O)N[C@@H](CCCC)C(=O)N[C@@H](CCN)C(=O)N[C@H](C(=O)NNC(=O)N[C@H]2CCNC(=O)[C@H]([C@@H](C)O)NC(=O)[C@H](CCN)NC(=O)[C@H](CCN)NC(=O)[C@H](CC(C)C)NC(=O)[C@@H](Cc3ccccc3)NC(=O)[C@H](CCN)NC2=O)[C@@H](C)O)[C@H](C(=O)N[C@@H](CCCC)C(=O)N[C@@H](CCN)C(=O)N[C@H](C(=O)NNC(=O)N[C@H]2CCNC(=O)[C@H]([C@@H](C)O)NC(=O)[C@H](CCN)NC(=O)[C@H](CCN)NC(=O)[C@H](CC(C)C)NC(=O)[C@@H](Cc3ccccc3)NC(=O)[C@H](CCN)NC2=O)[C@@H](C)O)C1 [Int-122] (I: [Nle][Dab]T[azaGly][Dab][Dab][dF]L[Dab][Dab]T / II: [Nle][Dab]T[azaGly][Dab][Dab][dF]L[Dab][Dab]T; lactam I:5-I:C, II:5-II:C; linker I:N-II:N via X6)
MIC (Ec 25922; Ec 25922 + FBS (50%, heat-inactivated), media CA-MHB): 0.25 µg/mL
MIC (Ec 25922; Ec 25922, media CA-MHB): 2 µg/mL (≈ 0.763 µM)
MIC (Ec 2469; Ec 2469, media CA-MHB): 2 µg/mL (≈ 0.763 µM)
MIC [1]: 2 µg/mL (≈ 0.763 µM)
% survival [2]: 80%
MIC (Ab 8990 (COL^R)): >128 µg/mL
MIC (Ab AB5075; Ab AB5075, media CA-MHB): 2 µg/mL (≈ 0.763 µM)
MIC (Kp 10031; Kp 10031, media CA-MHB): 2 µg/mL (≈ 0.763 µM)
MIC (Kp 6951 (COL^R); Kp 6951 (COL^R), media CA-MHB): 8 µg/mL (≈ 3.05 µM)
MIC (Kp 43816; Kp 43816, media CA-MHB): 2 µg/mL (≈ 0.763 µM)
MIC (Pa PAO1; Pa PAO1, media CA-MHB): 4 µg/mL (≈ 1.53 µM)
MIC (Pa 27853; Pa 27853, media CA-MHB): 4 µg/mL (≈ 1.53 µM)
MIC (Pa LES431; Pa LES431 + FBS (50%, heat-inactivated), media CA-MHB): 8 µg/mL
MIC (Pa LES431; Pa LES431, media CA-MHB): 2 µg/mL (≈ 0.763 µM)
MIC (Sa RN): >128 µg/mL
MIC (Ab 19606 (COLhet^R)): 2 µg/mL (≈ 0.763 µM)
MIC (Ec AR0349 (mcr-1, COL^R)): 2 µg/mL (≈ 0.763 µM)
MIC (Ec 25922 64X-1 (COL^R)): 2 µg/mL (≈ 0.763 µM)
